Test systems include RPMI-8226 leukemia; EKVX NSCLC; UO-31 renal; HCT-15 colon; HCC-2998 colon; K-562 leukemia; OVCAR-3 ovarian; DU-145 prostate; OVCAR-8 ovarian; HL-60(TB) leukemia.
What all share (experiment): growth of human tumour cells (NCI), 48 h

From PubChem BioAssay (NCI) come the findings set out here.

Structures are written as SMILES.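 48-hour exposure; five concentrations; linearly interpolated endpoints. Here, GI50 denotes the concentration required for 50% inhibition of growth. TGI: total growth inhibition.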 Bounds are passed on as bounds.

Regarding `O=C(Cc1ccc(F)c(Cl)c1)Nc1cc(C2(C(F)(F)F)CC2)nn1CC1CCCCC1`, the GI50 in the test on RPMI-8226 leukemia is 3.06 µM; in the test with EKVX NSCLC, 2.55 µM; with UO-31 renal it was 2.9 µM; with HCT-15 colon it was 3.87 µM; in the test on HCC-2998 colon, 4.45 µM; in the test with K-562 leukemia, 4.28 µM. The GI50 was 3.81 µM with OVCAR-3 ovarian, 5.39 µM in the test with DU-145 prostate, 4.96 µM with OVCAR-8 ovarian and 3.27 µM with HL-60(TB) leukemia. In addition, the TGI in the test with RPMI-8226 leukemia is 9.43 µM; in the test on EKVX NSCLC it was 12.6 µM; in the test on UO-31 renal it was 9.65 µM; in the test with HCT-15 colon it was over 15 µM; in the test with HCC-2998 colon, over 15 µM; in the test with K-562 leukemia it was over 15 µM. In addition, the TGI with OVCAR-3 ovarian is over 15 µM; in the test on DU-145 prostate, over 15 µM; in the test on OVCAR-8 ovarian, over 15 µM; in the test on HL-60(TB) leukemia, 7.79 µM.

For the compound `O=c1oc2ccc(-c3ccc(F)cc3F)cc2c(=O)n1-c1cccc(C(F)(F)F)c1`, the GI50 with RPMI-8226 leukemia was 0.395 µM; in the test with EKVX NSCLC, 2.16 µM; in the test on UO-31 renal, 1.38 µM; in the test on HCT-15 colon it was 1.61 µM; in the test with HCC-2998 colon, 2.64 µM; with K-562 leukemia, 1.2 µM. For the same compound, the GI50 in the test with OVCAR-3 ovarian is 0.784 µM; with DU-145 prostate, 2.79 µM; with OVCAR-8 ovarian, 2.05 µM; in the test with HL-60(TB) leukemia, 1.33 µM. Besides, the TGI with RPMI-8226 leukemia was 3.26 µM; in the test with EKVX NSCLC, over 100 µM; in the test with UO-31 renal it was 8.22 µM; with HCT-15 colon it was 23.4 µM; in the test on HCC-2998 colon, 7.94 µM; in the test with K-562 leukemia it was 18.2 µM. In addition, the TGI with OVCAR-3 ovarian is 12.8 µM; in the test on DU-145 prostate, 16.4 µM; in the test with OVCAR-8 ovarian, over 100 µM; in the test with HL-60(TB) leukemia, 3.89 µM.

Consider `CC(=O)Nc1ccc(-c2csc(Nc3cccc(-c4csc(C)n4)c3)n2)cc1`, for which the GI50 with RPMI-8226 leukemia was 0.789 µM; in the test on EKVX NSCLC, 4.99 µM; with UO-31 renal, 6.73 µM; in the test on HCT-15 colon, 0.289 µM; in the test with HCC-2998 colon it was 0.00657 µM; in the test on K-562 leukemia, 0.385 µM. Besides, the GI50 in the test with OVCAR-3 ovarian was 0.238 µM; with DU-145 prostate it was 3.85 µM; in the test with OVCAR-8 ovarian it was 2.44 µM; with HL-60(TB) leukemia it was 0.609 µM. Also, the TGI with EKVX NSCLC was 22.2 µM; in the test with UO-31 renal, 22.8 µM; in the test on HCT-15 colon it was over 27.4 µM; with HCC-2998 colon, 8.98 µM; in the test with K-562 leukemia it was 9.55 µM; in the test on DU-145 prostate, 22.7 µM. Moreover, the TGI in the test with OVCAR-8 ovarian worked out at 20.8 µM.

With `O=C(c1ccco1)c1c(C(F)(F)F)nc2ccc(Cl)cc2[n+]1[O-]`, the GI50 is over 100 µM in the test on RPMI-8226 leukemia; 56.8 µM in the test with EKVX NSCLC; over 100 µM in the test on UO-31 renal; 61 µM with HCT-15 colon; 21.8 µM with HCC-2998 colon; 33.2 µM in the test on K-562 leukemia. The GI50 in the test with OVCAR-3 ovarian was over 100 µM; with DU-145 prostate, over 100 µM; in the test on OVCAR-8 ovarian, over 100 µM; with HL-60(TB) leukemia, 25.2 µM. Besides, the TGI in the test with RPMI-8226 leukemia is over 100 µM; in the test with EKVX NSCLC it was over 100 µM; with UO-31 renal it was over 100 µM; in the test on HCT-15 colon, over 100 µM; in the test with HCC-2998 colon, 46.1 µM; in the test with K-562 leukemia, over 100 µM. Further, the TGI in the test on OVCAR-3 ovarian is over 100 µM; with DU-145 prostate, over 100 µM; with OVCAR-8 ovarian, over 100 µM; in the test on HL-60(TB) leukemia it was 85.1 µM.

As for `CN(C)CC[C@H](CSc1ccccc1)Nc1ccc(S(=O)(=O)NC(=O)c2ccc(N3CCN(Cc4ccccc4-c4ccc(Cl)cc4)CC3)cc2)cc1[N+](=O)[O-]`, the GI50 in the test with RPMI-8226 leukemia was 2.56 µM; in the test with EKVX NSCLC it was 3.32 µM; in the test on UO-31 renal it was 3.53 µM; in the test with HCT-15 colon, 5.09 µM; with HCC-2998 colon it was 0.457 µM; in the test on K-562 leukemia, 5.03 µM. Also, the GI50 with OVCAR-3 ovarian is 3.92 µM; with DU-145 prostate it was 23 µM; with OVCAR-8 ovarian, 6.12 µM; with HL-60(TB) leukemia, 0.35 µM. Further, the TGI was over 100 µM in the test with RPMI-8226 leukemia; over 100 µM in the test with EKVX NSCLC; 27.6 µM in the test with UO-31 renal; over 100 µM in the test on HCT-15 colon; 2.01 µM with HCC-2998 colon; over 100 µM in the test on K-562 leukemia. Moreover, the TGI was 23.6 µM with OVCAR-3 ovarian, over 100 µM in the test with DU-145 prostate, over 100 µM with OVCAR-8 ovarian and 4.56 µM with HL-60(TB) leukemia.

For `COc1ccc(-c2ccc(=O)oc2C#Cc2cc(OC)c(OC)c(OC)c2)cc1O`, the GI50 in the test with RPMI-8226 leukemia is 0.23 µM; with EKVX NSCLC, 1.38 µM; in the test with UO-31 renal, 0.585 µM; with HCT-15 colon, 0.324 µM; in the test on HCC-2998 colon it was 0.265 µM; with K-562 leukemia it was 0.129 µM. The GI50 was 0.113 µM with OVCAR-3 ovarian, 0.248 µM with DU-145 prostate, 0.775 µM with OVCAR-8 ovarian and 0.316 µM in the test on HL-60(TB) leukemia. Moreover, the TGI is over 100 µM in the test on EKVX NSCLC; over 100 µM in the test on HCT-15 colon; over 100 µM in the test with HCC-2998 colon; over 100 µM in the test on K-562 leukemia; 0.612 µM in the test with OVCAR-3 ovarian; 1.54 µM in the test with DU-145 prostate. The TGI in the test on OVCAR-8 ovarian and in the test with HL-60(TB) leukemia was over 100 µM each time.

For `COc1ccc(C(=O)Nc2ccc(O)c(=O)cc2)cc1`, the TGI was over 100 µM with RPMI-8226 leukemia; 59 µM in the test on EKVX NSCLC; 47 µM in the test with UO-31 renal; 89.5 µM in the test with HCT-15 colon; over 100 µM in the test with HCC-2998 colon; 77.3 µM in the test with K-562 leukemia. Besides, the TGI in the test with OVCAR-3 ovarian was 90 µM; with DU-145 prostate, 59 µM; in the test with OVCAR-8 ovarian, 91.7 µM; with HL-60(TB) leukemia, 54.6 µM.

For the compound `CN1CCN(c2ccc(Nc3cc(-c4cccc(-n5ccc6cc(C7CC7)cc(F)c6c5=O)c4CO)cn(C)c3=O)nc2)CC1`, the GI50 in the test on RPMI-8226 leukemia was 3.8 µM; in the test on EKVX NSCLC, 2.62 µM; with UO-31 renal, 1.72 µM; in the test on HCT-15 colon, 5.11 µM; in the test with HCC-2998 colon, 10.4 µM; in the test on K-562 leukemia, 3.17 µM. The GI50 was 3.12 µM in the test on OVCAR-3 ovarian, 7.9 µM in the test with DU-145 prostate, 4.84 µM in the test on OVCAR-8 ovarian and 2.21 µM in the test with HL-60(TB) leukemia. Also, the TGI amounted to 19 µM with RPMI-8226 leukemia; 9.11 µM in the test on EKVX NSCLC; 3.46 µM in the test on UO-31 renal; 26.1 µM with HCT-15 colon; 35.8 µM in the test on HCC-2998 colon; 12 µM in the test on K-562 leukemia. For the same compound, the TGI in the test on OVCAR-3 ovarian was determined as 8.8 µM; in the test on DU-145 prostate it was 22 µM; in the test on OVCAR-8 ovarian, 29.7 µM; in the test with HL-60(TB) leukemia it was 4.4 µM.
